In ChEMBL document CHEMBL5725308, “Inhibitors of the fibroblast growth factor receptor” (2017) one finds IC50 data, which are given here for five compounds.

Structures are written as SMILES. Some results are limits rather than exact numbers.

Fibroblast growth factor receptor 4, sequence (P22455 whole entry): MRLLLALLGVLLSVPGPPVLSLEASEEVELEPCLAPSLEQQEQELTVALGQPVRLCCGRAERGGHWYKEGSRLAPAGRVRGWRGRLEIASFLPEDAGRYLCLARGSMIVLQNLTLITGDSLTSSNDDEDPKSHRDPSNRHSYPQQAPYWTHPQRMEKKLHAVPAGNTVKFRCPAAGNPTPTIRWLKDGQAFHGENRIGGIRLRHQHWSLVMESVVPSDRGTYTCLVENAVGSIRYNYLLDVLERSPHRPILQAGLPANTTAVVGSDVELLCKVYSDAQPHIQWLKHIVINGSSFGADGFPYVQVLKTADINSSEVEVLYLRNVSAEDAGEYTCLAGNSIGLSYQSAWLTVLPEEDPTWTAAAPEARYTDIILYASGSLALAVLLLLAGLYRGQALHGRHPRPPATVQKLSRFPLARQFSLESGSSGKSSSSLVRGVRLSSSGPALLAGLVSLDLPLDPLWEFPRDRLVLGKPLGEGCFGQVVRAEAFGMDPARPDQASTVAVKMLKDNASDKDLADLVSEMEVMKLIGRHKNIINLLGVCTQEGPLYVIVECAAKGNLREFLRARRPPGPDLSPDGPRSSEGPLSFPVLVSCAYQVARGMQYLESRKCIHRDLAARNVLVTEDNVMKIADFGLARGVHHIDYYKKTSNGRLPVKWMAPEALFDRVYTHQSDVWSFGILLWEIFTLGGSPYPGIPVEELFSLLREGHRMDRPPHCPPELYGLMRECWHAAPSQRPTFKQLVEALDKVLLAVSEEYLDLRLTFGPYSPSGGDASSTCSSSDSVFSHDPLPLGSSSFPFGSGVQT

This experiment has as its target Fibroblast growth factor receptor 4 (Homo sapiens, UniProt P22455). Nature of the experiment: The reaction was stopped by the addition of 70 ul of Stop buffer (100 mM HEPES pH 7.5, 0.015% Brij 35, 35 mM EDTA and 0.2% of Coating Reagent 3 (Caliper Lifesciences)). The plate was then read on a Caliper LabChip EZ Reader II (protocol settings: −1.9 psi, upstream voltage −700, downstream Voltage -3000, post sample sip 35S). Format: biochemical.
On to `C=CC(=O)N1CCc2ccc(-c3ncc4cc(-c5c(Cl)c(OC)cc(OC)c5Cl)c(=O)n(CC)c4n3)cc21`, for which the IC50 (in general, the concentration that inhibits the measured activity by half) is less than 10 nM. The compound `C=CC(=O)Nc1cccc(-c2cc3c(cn2)cc(-c2c(Cl)c(OC)cc(OC)c2Cl)c(=O)n3C2CCCC2)c1` returned an IC50 of less than 10 nM.

For the compound `C=CC(=O)N1CC(C)(C)Oc2ccc(-c3cc4c(cn3)cc(-c3c(Cl)c(OC)cc(OC)c3Cl)c(=O)n4CC)cc21`, the IC50 is less than 10 nM. `C=CC(=O)Nc1ccccc1-c1cc2c(cn1)cc(-c1c(Cl)c(OC)cc(OC)c1Cl)c(=O)n2C1CCCC1` came in with an IC50 of less than 10 nM. As for `C=CC(=O)Nc1ccccc1-c1ncc2cc(-c3c(Cl)c(OC)cc(OC)c3Cl)cc(OC)c2n1`, the IC50 was more than 1000 nM.
